Data reported in ChEMBL document CHEMBL1909046, “DrugMatrix in vitro pharmacology data”.

Experiments:
[1] = biological target: T1, Interstitial collagenase (Homo sapiens, UniProt P03956); format: tissue-based, Rheumatoid synovial fibroblasts;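 also: MMP-1 enzyme inhibition assay using a peptide substrate; in other assays of this panel Not Active means under 50% inhibition at 10 µM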
T1 sequence (P03956 whole entry): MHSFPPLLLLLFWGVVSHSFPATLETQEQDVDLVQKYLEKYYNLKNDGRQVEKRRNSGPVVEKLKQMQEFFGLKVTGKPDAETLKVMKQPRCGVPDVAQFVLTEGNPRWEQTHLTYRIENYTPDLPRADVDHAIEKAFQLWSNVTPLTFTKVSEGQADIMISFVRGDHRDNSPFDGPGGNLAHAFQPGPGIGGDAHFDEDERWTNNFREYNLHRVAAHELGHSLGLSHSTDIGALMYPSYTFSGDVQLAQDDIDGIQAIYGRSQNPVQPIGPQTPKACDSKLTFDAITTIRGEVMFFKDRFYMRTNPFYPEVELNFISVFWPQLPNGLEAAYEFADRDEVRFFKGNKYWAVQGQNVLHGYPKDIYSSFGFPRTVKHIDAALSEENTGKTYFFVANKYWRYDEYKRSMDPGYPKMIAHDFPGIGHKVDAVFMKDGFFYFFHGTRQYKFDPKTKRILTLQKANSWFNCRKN

[2] = biological target: T2, Alpha-1B adrenergic receptor (Rattus norvegicus, UniProt P15823); assay: DRUGMATRIX: Alpha-1B adrenergic receptor radioligand binding (ligand: prazosin); format: cell membranes, Wistar, Liver, Membrane; settings: Not Active = under 50% inhibition at 10 µM
T2 sequence (P15823 whole entry): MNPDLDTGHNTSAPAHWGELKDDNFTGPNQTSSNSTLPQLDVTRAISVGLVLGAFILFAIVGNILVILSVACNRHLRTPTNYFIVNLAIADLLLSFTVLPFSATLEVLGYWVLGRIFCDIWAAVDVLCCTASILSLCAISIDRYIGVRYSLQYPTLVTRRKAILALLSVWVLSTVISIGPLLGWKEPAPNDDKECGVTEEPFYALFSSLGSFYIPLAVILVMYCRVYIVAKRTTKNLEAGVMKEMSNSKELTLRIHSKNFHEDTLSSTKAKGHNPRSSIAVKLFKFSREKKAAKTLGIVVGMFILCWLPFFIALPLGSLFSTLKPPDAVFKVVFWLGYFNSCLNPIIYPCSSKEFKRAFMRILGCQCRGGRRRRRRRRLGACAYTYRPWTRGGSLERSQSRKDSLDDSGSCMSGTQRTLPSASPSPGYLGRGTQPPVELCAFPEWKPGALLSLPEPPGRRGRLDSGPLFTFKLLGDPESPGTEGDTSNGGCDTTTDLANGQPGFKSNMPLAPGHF

[3] = biological target: T3, Nitric oxide synthase, inducible (Mus musculus, UniProt P29477); parameters: species or system Escherichia coli;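 also: inhibition of iNOS enzyme activity measured with L-arginine as substrate; in other assays of this panel Not Active means under 50% inhibition at 10 µM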
T3 sequence (P29477 whole entry): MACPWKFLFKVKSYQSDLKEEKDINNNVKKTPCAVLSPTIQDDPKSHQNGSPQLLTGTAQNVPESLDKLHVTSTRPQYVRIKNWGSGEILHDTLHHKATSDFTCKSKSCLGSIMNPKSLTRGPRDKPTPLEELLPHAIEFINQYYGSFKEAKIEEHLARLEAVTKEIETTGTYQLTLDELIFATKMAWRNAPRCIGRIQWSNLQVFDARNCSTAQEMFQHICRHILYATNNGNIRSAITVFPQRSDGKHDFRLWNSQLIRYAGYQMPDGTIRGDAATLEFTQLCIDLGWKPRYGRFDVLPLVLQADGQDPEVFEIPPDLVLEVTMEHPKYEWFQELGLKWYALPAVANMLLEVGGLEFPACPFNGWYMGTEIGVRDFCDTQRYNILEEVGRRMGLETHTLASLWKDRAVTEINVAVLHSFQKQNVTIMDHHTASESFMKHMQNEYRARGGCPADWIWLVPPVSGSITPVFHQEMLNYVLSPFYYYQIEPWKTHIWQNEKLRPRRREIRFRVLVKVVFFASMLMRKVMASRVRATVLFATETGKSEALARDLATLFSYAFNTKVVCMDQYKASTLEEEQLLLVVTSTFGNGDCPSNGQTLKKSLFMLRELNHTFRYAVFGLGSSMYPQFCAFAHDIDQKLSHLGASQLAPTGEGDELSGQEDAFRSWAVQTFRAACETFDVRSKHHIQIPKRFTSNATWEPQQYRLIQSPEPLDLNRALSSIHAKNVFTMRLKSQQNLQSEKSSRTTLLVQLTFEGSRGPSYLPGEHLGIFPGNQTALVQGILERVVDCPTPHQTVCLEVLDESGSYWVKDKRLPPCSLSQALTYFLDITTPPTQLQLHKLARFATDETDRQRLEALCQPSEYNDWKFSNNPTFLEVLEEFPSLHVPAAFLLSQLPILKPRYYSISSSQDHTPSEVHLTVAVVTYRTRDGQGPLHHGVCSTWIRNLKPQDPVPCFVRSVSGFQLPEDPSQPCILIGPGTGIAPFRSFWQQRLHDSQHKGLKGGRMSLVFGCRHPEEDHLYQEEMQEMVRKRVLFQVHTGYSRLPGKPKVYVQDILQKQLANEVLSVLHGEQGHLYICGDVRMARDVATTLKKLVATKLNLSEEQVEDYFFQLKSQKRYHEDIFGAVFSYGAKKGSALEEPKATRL

[4] = biological target: Mu-type opioid receptor (Homo sapiens, UniProt P35372); assay: DRUGMATRIX: Opiate mu (OP3, MOP) radioligand binding (ligand: [3H] Diprenorphine); format: cell membranes, CHO-K1, Membrane; settings: cho-k1; Not Active = under 50% inhibition at 10 µM
Chain of Mu-type opioid receptor (P35372 whole entry): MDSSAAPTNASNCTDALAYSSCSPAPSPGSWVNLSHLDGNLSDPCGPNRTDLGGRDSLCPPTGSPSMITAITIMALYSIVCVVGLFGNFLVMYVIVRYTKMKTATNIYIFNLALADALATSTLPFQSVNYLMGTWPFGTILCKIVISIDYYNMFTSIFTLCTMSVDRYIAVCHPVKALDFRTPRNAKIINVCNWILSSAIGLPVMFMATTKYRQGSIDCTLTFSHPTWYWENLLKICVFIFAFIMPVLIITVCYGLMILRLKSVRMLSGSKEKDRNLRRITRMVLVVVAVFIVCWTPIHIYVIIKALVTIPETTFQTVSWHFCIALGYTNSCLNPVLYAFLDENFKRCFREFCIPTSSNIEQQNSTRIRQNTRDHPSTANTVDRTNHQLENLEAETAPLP

[5] = biological target: T4, Polyunsaturated fatty acid lipoxygenase ALOX15 (Oryctolagus cuniculus, UniProt P12530); assay: biochemical; format: tissue-based, Reticulocytes; settings: reticulocytes;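 also: inhibition of 15-lipoxygenase enzyme activity measured with linoleic acid as the substrate; in other assays of this panel Not Active means under 50% inhibition at 10 µM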
T4 sequence (P12530 whole entry): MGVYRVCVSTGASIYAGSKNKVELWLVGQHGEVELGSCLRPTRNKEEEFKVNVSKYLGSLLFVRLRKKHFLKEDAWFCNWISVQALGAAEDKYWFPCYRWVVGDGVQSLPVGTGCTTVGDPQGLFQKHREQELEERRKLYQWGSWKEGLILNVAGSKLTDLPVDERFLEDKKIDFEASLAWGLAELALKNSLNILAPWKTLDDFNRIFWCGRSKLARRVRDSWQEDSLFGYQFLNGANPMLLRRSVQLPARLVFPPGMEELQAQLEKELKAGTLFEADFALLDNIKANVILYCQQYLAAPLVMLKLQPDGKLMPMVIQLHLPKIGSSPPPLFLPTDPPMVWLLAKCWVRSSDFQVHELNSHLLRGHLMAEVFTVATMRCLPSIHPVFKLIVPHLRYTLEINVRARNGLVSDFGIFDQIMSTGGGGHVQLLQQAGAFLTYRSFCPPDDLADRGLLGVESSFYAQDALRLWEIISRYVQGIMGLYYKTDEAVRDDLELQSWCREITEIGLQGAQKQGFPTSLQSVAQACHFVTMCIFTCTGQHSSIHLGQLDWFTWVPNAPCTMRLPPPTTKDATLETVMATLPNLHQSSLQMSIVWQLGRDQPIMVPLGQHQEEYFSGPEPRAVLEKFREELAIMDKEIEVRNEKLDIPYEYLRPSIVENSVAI

SMILES | IC50 [1] | IC50 [2] | IC50 [3] | IC50 [4] | IC50 [5] | IC50 ([2]; read-out: IC50) | Ki ([2]; read-out: Ki)
CC1(C)[C@@H](O[C@H]2O[C@H](C(=O)O)[C@@H](O)[C@H](O)[C@H]2O[C@@H]2O[C@H](C(=O)O)[C@@H](O)[C@H](O)[C@H]2O)CC[C@]2(C)[C@H]3C(=O)C=C4[C@@H]5C[C@@](C)(C(=O)O)CC[C@]5(C)CC[C@@]4(C)[C@]3(C)CC[C@@H]12 [GLYCYRRHIZIN] | Not Active | Not Active | Not Active | Not Active | Not Active |  | 
COC1=CC(=O)C[C@@H](C)[C@]12Oc1c(Cl)c(OC)cc(OC)c1C2=O [GRISEOFULVIN] | Not Active | Not Active | Not Active | Not Active | Not Active |  | 
C/C=C1\[C@H]2C=C(C)C[C@]1(N)c1ccc(=O)[nH]c1C2 [HUPERZINE A] | Not Active | Not Active | Not Active | Not Active | Not Active |  | 
NS(=O)(=O)c1cc2c(cc1Cl)NCNS2(=O)=O [HYDROCHLOROTHIAZIDE] | Not Active | Not Active | Not Active | Not Active | Not Active |  | 
O=P1(NCCCl)OCCCN1CCCl (stereo unspecified) [IFOSFAMIDE] | Not Active | Not Active | Not Active | Not Active | Not Active |  | 
CN1CCC[C@H]1c1cccnc1 [NICOTINE] | Not Active | Not Active | Not Active | Not Active | Not Active |  | 
O=C1CN=C(c2ccccc2)c2cc([N+](=O)[O-])ccc2N1 [NITRAZEPAM] | Not Active | Not Active | Not Active | Not Active | Not Active |  | 
CNCCC=C1c2ccccc2CCc2ccccc21 [NORTRIPTYLINE] | Not Active |  | Not Active | Not Active | Not Active | 0.207 µM | 0.114 µM
CC1COc2c(N3CCN(C)CC3)c(F)cc3c(=O)c(C(=O)O)cn1c23 (stereo unspecified) [OFLOXACIN] | Not Active | Not Active | Not Active | Not Active | Not Active |  | 
Oc1cccc2cccnc12 [OXYQUINOLINE] | Not Active | Not Active | Not Active | Not Active | Not Active |  | 
CN(C)[C@@H]1C(O)=C(C(N)=O)C(=O)[C@@]2(O)C(O)=C3C(=O)c4c(O)cccc4[C@@](C)(O)[C@H]3[C@H](O)[C@@H]12 [OXYTETRACYCLINE] | Not Active | Not Active | Not Active | Not Active | Not Active |  | 
Fc1ccc([C@@H]2CCNC[C@H]2COc2ccc3c(c2)OCO3)cc1 [PAROXETINE] | Not Active | Not Active | Not Active | Not Active | Not Active |  | 
CC(C)(S)[C@@H](N)C(=O)O [PENICILLAMINE] | Not Active | Not Active | Not Active | Not Active | Not Active |  | 
CC(=O)CCCCn1c(=O)c2c(ncn2C)n(C)c1=O [PENTOXIFYLLINE] | Not Active | Not Active | Not Active | Not Active | Not Active |  | 
O=C1NC(=O)C(c2ccccc2)(c2ccccc2)N1 [PHENYTOIN] | Not Active | Not Active | Not Active | Not Active | Not Active |  | 
CNC(=O)Oc1ccc2c(c1)[C@]1(C)CCN(C)[C@@H]1N2C [PHYSOSTIGMINE] | Not Active | Not Active | Not Active | Not Active | Not Active |  | 
CN1C(C(=O)Nc2ccccn2)=C(O)c2ccccc2S1(=O)=O [PIROXICAM] | Not Active | Not Active | Not Active | Not Active | Not Active |  | 
CCC1(c2ccccc2)C(=O)NCNC1=O [PRIMIDONE] | Not Active | Not Active | Not Active | Not Active | Not Active |  | 
CCCc1cc(=O)[nH]c(=S)[nH]1 [PROPYLTHIOURACIL] | Not Active | Not Active | Not Active | Not Active | Not Active |  | 
COc1ccc(CN(CCN(C)C)c2ccccn2)cc1 [PYRILAMINE] | Not Active | Not Active | Not Active | Not Active | Not Active |  | 
